The values below come from PubChem BioAssay (NCI).

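Growth conditions: 96-well plates. Treatment: test compound, 48 hours, 5 concentrations. Analysis: linear interpolation between bracketing concentrations; unreached endpoints set to highest concentration. At the TGI there is no net growth.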 A value given as a limit tells only on which side of the number the result lay.

Among the test systems are RXF 393 renal; SN12C renal; A498 renal; SK-MEL-28 melanoma; SF-268 CNS; SW-620 colon; HOP-92 NSCLC; EKVX NSCLC; RPMI-8226 leukemia; HL-60(TB) leukemia; SK-MEL-5 melanoma; LOX IMVI melanoma; TK-10 renal; OVCAR-3 ovarian; SK-MEL-2 melanoma; SF-295 CNS; KM12 colon; MDA-N.
Common to all, as to test: growth of human tumour cells (NCI), 48 h

`CC(=O)NC1C(OCc2ccccc2)OC(CO)C(O)C1OCC(=O)NC(C)C(=O)NC(CCC(=O)Nc1ccc2c(c1)CN1C(=O)c3ccccc3C1=N2)C(N)=O` (centres undefined): the TGI in the assay on RXF 393 renal, in the assay with SN12C renal, in the assay with A498 renal, in the assay with SK-MEL-28 melanoma, in the assay on SF-268 CNS and with SW-620 colon was above 100 µM each time. The TGI in the assay on HOP-92 NSCLC, in the assay on EKVX NSCLC, in the assay with RPMI-8226 leukemia, in the assay on HL-60(TB) leukemia, in the assay on SK-MEL-5 melanoma and in the assay on LOX IMVI melanoma was above 100 µM in each case. Moreover, the TGI in the assay with TK-10 renal, with OVCAR-3 ovarian, in the assay with SK-MEL-2 melanoma, in the assay with SF-295 CNS, in the assay with KM12 colon and in the assay with MDA-N was above 100 µM in each case.
As for `CCC1c2[nH]c3ccccc3c2C[C@H]2C(=O)NC(Cc3ccccc3)C(=O)N12` (some centres undefined), the TGI in the assay on RXF 393 renal was 53.6 µM; with SN12C renal, 79.9 µM; in the assay with A498 renal, above 100 µM; in the assay on SK-MEL-28 melanoma, above 100 µM; in the assay with SF-268 CNS it was 66.3 µM; with SW-620 colon, above 100 µM. The TGI in the assay with HOP-92 NSCLC worked out at 72.8 µM; in the assay on EKVX NSCLC, 95 µM; in the assay on RPMI-8226 leukemia, 51.3 µM; with HL-60(TB) leukemia, 47.8 µM; in the assay on SK-MEL-5 melanoma it was 35.5 µM; in the assay on LOX IMVI melanoma, 45.8 µM. In addition, the TGI in the assay with TK-10 renal was above 100 µM; with OVCAR-3 ovarian, 94.2 µM; in the assay with SK-MEL-2 melanoma, 41.4 µM; in the assay with SF-295 CNS, 57.8 µM; with KM12 colon, 66 µM; with MDA-N, 67.5 µM.
In the case of `Cc1cc2c(cc1-c1cc3c(cc1C)C(C(C)C)=C(O)C(=O)/C3=C\Nc1cccc3c(N)cccc13)/C(=C/Nc1cccc3c(N)cccc13)C(=O)C(O)=C2C(C)C`, the TGI in the assay with RXF 393 renal, in the assay with SN12C renal, in the assay on A498 renal, in the assay with SK-MEL-28 melanoma, with SF-268 CNS and with SW-620 colon was above 100 µM each time. Besides, the TGI in the assay on HOP-92 NSCLC, in the assay on EKVX NSCLC, in the assay on RPMI-8226 leukemia, in the assay on HL-60(TB) leukemia, in the assay on SK-MEL-5 melanoma and in the assay on LOX IMVI melanoma was above 100 µM each time. In addition, the TGI in the assay with TK-10 renal, in the assay with OVCAR-3 ovarian, in the assay on SK-MEL-2 melanoma, with SF-295 CNS, in the assay on KM12 colon and with MDA-N was above 100 µM throughout.
With `c1ncc(C23C4C5C6C4C2C6C53)[nH]1` (centres undefined), the TGI in the assay on RXF 393 renal, with SN12C renal, in the assay with A498 renal, in the assay with SK-MEL-28 melanoma, in the assay on SF-268 CNS and with SW-620 colon was above 100 µM in each case. For the same compound, the TGI in the assay on HOP-92 NSCLC, in the assay with EKVX NSCLC, in the assay on RPMI-8226 leukemia, with HL-60(TB) leukemia, in the assay with SK-MEL-5 melanoma and in the assay with LOX IMVI melanoma was above 100 µM in each case. Also, the TGI with TK-10 renal, in the assay with OVCAR-3 ovarian, in the assay with SK-MEL-2 melanoma, with SF-295 CNS, with KM12 colon and in the assay with MDA-N was above 100 µM throughout.
Consider `CC(C)Cn1cnnc1NS(=O)(=O)c1cc(C(=O)NN)c(Cl)cc1S`, for which the TGI with RXF 393 renal, in the assay on SN12C renal, in the assay with A498 renal, in the assay with SK-MEL-28 melanoma, in the assay with SF-268 CNS and in the assay with SW-620 colon was above 10 µM throughout. Moreover, the TGI in the assay with HOP-92 NSCLC, with EKVX NSCLC, in the assay on RPMI-8226 leukemia, in the assay with HL-60(TB) leukemia, with SK-MEL-5 melanoma and with LOX IMVI melanoma was above 10 µM in each case. The TGI in the assay on TK-10 renal, in the assay on OVCAR-3 ovarian, in the assay with SK-MEL-2 melanoma, in the assay on SF-295 CNS, in the assay with KM12 colon and in the assay on MDA-N was above 10 µM throughout.
In the case of `c1cc(-c2ccc(Oc3ccc(-c4ccncc4)cc3)cc2)ccn1`, the TGI was above 86 µM in the assay on RXF 393 renal; above 100 µM with SN12C renal; above 69.7 µM in the assay on A498 renal; above 95.1 µM in the assay on SK-MEL-28 melanoma; above 100 µM with SF-268 CNS; above 100 µM in the assay on SW-620 colon. Further, the TGI in the assay on HOP-92 NSCLC was above 88.6 µM; in the assay on EKVX NSCLC, above 67.1 µM; in the assay with RPMI-8226 leukemia it was 4.96 µM; with HL-60(TB) leukemia, 11.1 µM; with SK-MEL-5 melanoma it was 5.52 µM; in the assay with LOX IMVI melanoma it was above 100 µM. The TGI in the assay on TK-10 renal was above 66.1 µM; with OVCAR-3 ovarian, above 61.8 µM; in the assay on SK-MEL-2 melanoma, above 100 µM; in the assay with SF-295 CNS, above 100 µM; in the assay with KM12 colon, above 27.4 µM; in the assay on MDA-N it was above 100 µM.
Regarding `COc1cc([C@@H]2c3cc4c(cc3[C@@H](N=Cc3ccc(C(=O)O[C@H]5C[C@H]6OC[C@@]6(OC(C)=O)[C@H]6[C@H](OC(=O)c7ccccc7)[C@]7(O)C[C@H](OC(=O)[C@H](OC(=O)c8ccc(C=N[C@@H]9c%10cc%11c(cc%10[C@@H](c%10cc(OC)c(O)c(OC)c%10)[C@H]%10C(=O)OC[C@@H]%109)OCO%11)cc8)[C@@H](NC(=O)c8ccccc8)c8ccccc8)C(C)=C([C@@H](OC(C)=O)C(=O)[C@]56C)C7(C)C)cc3)C3COC(=O)C32)OCO4)cc(C)c1O` (some centres undefined), the TGI in the assay with RXF 393 renal is above 50 µM; in the assay with SN12C renal, above 50 µM; in the assay on A498 renal it was 29.2 µM; with SK-MEL-28 melanoma, above 50 µM; in the assay on SF-268 CNS, above 50 µM; with SW-620 colon, above 50 µM. Moreover, the TGI is above 50 µM in the assay on HOP-92 NSCLC; above 35.2 µM with EKVX NSCLC; above 50 µM in the assay on RPMI-8226 leukemia; above 50 µM with HL-60(TB) leukemia; above 50 µM in the assay on SK-MEL-5 melanoma; above 50 µM with LOX IMVI melanoma. Besides, the TGI in the assay with TK-10 renal was above 50 µM; in the assay on OVCAR-3 ovarian, above 31.9 µM; with SK-MEL-2 melanoma, above 50 µM; in the assay on SF-295 CNS, above 50 µM; in the assay on KM12 colon, above 50 µM; in the assay with MDA-N, 7.71 µM.
`CC(C)c1cc(C(C)C)c(P2(=O)CC3C(Cl)(Cl)C3(C)C2)c(C(C)C)c1` (centres undefined): the TGI in the assay with RXF 393 renal came to 28.2 µM; with SN12C renal, 29.3 µM; in the assay on A498 renal, 26.9 µM; in the assay with SK-MEL-28 melanoma, 31.9 µM; in the assay on SF-268 CNS, 25.3 µM; in the assay with SW-620 colon, 26.4 µM. For the same compound, the TGI in the assay with HOP-92 NSCLC is 27.3 µM; with EKVX NSCLC, 31 µM; with RPMI-8226 leukemia, above 25.5 µM; with HL-60(TB) leukemia, 10.7 µM; with SK-MEL-5 melanoma, 22.4 µM; with LOX IMVI melanoma it was 21.5 µM. Further, the TGI with TK-10 renal turned out to be 24.5 µM; with OVCAR-3 ovarian, 20.4 µM; in the assay with SK-MEL-2 melanoma, 24.8 µM; in the assay on SF-295 CNS, 18.6 µM; in the assay on KM12 colon, 28.4 µM; with MDA-N, 27.1 µM.
